According to US5116858A, “4-imidazoline derivatives” (Mitsubishi Kasei Corporation, priority 1989, dated 1992):

What was measured:
[1] = background, Iyakuhin Kenkyu 16, 1 (1985); cited from earlier work
[2] = test system: cytotoxicities caused by active oxygen species; details: background; cited from earlier work
Acute toxicity, oral = details: rat, in vivo, SD rats, seven-day observation
Method: Compounds of the invention suspended in 1% tragacanth was orally administered to SD rats (both male and female) and mortality (LD50) was determined after seven-day observation.

mice = assay: Passive avoidance response test (memory-improving activity, cycloheximide-treated mice); format: in vivo; details: Mus musculus; oral, 15 mice per group, cycloheximide 120 mg/kg s.c., latent time; read-out: Memory-Improving Activity, Minimum Effective Dose
Method: Passive avoidance response test was conducted in mice (15 animals per group) using light-dark differential apparatus of step-down type. The apparatus consisted of a dark room made of black and rigid vinylidene chloride resin [30 cm (depth)×30 cm (width)×31 cm (height)] and a light room, as an adjacent room, made of transparent rigid vinylidene chloride resin. The floor of the light room was set 2 cm higher than the grid surface of the dark room (step down type), and there was a guillotine door between the rooms. The animals were placed in the apparatus and acclimatized before test, and latent time for moving from the light room to the dark room was determined.
The acclimatized animals subcutaneously received 120 mg/kg of cycloheximide (Sigma) dissolved in physiological saline. After 30 minutes of the administration, the animals were placed in the light room. Immediatly after the movement of the animals to the dark room, electric current was applied on the grid (0.5 mA, 3 seconds), which gave the animals "aquired behavior". After 24 hours of the establishment of the aquired behavior, a test compound suspended in 1% tragacanth was administered orally to the animals, which were then returned to the light room. Control animals received only 1% tragacanth. The latent time until an individual animal started to move to the dark room was determined.

[3] = test system: peroxidized lipid in rat brain homogenate; assay: Lipoperoxidation inhibitory activity in brain homogenate (TBA method); format: biochemical, Wistar male rats; details: 30 minutes at 37° C., final conc. 0.3-100 μM, read-out: Anti-lipoperoxidation Activity IC50
Method: Brain homogenate was prepared using Wistar male rats in accordance with the following procedure. […] A polyethylene tube was inserted into the aorta through the left ventricle, and fixed. Brain perfusion was conducted using ice-cooled 50 mM phosphate buffered saline (PBS), pH 7.4, through the tube, and whole brain was extracted. After removal of the cerebellum, the cerebrum was weighed while wet and homogenated by a Teflon homogenizer under ice-cooling, after addition of nine-fold by weight of PBS. The resultant homogenate was centrifuged at 4° C. (2200 r.p.m., 10 minutes), and an aliquot of the supernatant (0.3 ml) was placed in a light-resistant test tube with ground stopper and used for the following test.
To the brain homogenate obtained above were added PBS (0.6 ml) and an ethanol solution (10 μl) containing a predetermined amount of a test compound. Thus, each of the ethanol solutions was prepared so that the final concentration of the compound was 0.3-100 μM. The mixture was allowed to warm for 30 minutes at 37° C. (external bath temperature). […] (2600 r.p.m., 10 minutes). The resultant supernatant was used in the following quantitative analysis.
The aqueous mixture was heated in a boiling-water bath for 60 minutes and cooled rapidly. Distilled water (1.0 ml) and a mixture of pyridine and butanol (1:15) (5.0 ml) were added to the cooled mixture, and the latter was shaken for 30 seconds and centrifuged (3000 r.p.m., 10 minutes). The supernatant was used as a test sample for quantitative analysis of peroxidized lipid as mentioned below.

| Molecule | inhibitory action on CNS (in words) [1] | activity as inhibitory agent for cytotoxicities (in words) [2] | LD50 at 168 h (Acute toxicity, oral) [mg/kg] | minimal effective dose (mice) [mg/kg] | IC50 [3] [µM] |
| --- | --- | --- | --- | --- | --- |
| CCN(CC)Cc1nccn1-c1ccc([N+](=O)[O-])cc1C(=O)c1ccccc1Cl [nizofenone] | strong inhibitory action on CNS | – | – | – | – |
| O=C1O[C@H]([C@@H](O)CO)C(O)=C1O [Vitamin C] | – | very limited in their activities | – | – | – |
| Vitamin E | – | very limited in their activities | – | – | – |
| Cc1[nH]c(=O)n(C)c1-c1ccc(-c2ccccc2)cc1 [compound 16] | – | – | > 1000 | 0.3 | 6.3 |
| CCCCc1ccc(-c2c(C)[nH]c(=O)n2Cc2ccccc2)cc1 [Compound No. 137, 1-Benzyl-5-(4'-n-butylphenyl)-4-methyl-4-imidazolin-2-one] | – | – | > 1000 | 0.1 | 12.4 |
